89 compounds from the COVID Moonshot data (paper PMC7615835) can be followed below.

A word on the IC50: it is the concentration that inhibits the measured activity by half. The low end stands for higher potency, the high end for lower potency.

Several values for one entry are separate records, joined by “and”; a condition that tells them apart may be missing. Equal values may be shown once.

This test deals with SARS-CoV-2 Main Protease (SARS-CoV-2) (UniProt P0DTD1).

For `Cc1nc2ccc(N(C(=O)c3cnc[nH]3)C(C(=O)NCCc3cccc(F)c3)c3cccnc3)cc2o1` (centres undefined), the IC50 was over 99 µM.
`CCS(=O)(=O)Nc1ccc2cncc(NC(=O)Cc3cccc(Cl)c3)c2c1` had a 50% inhibitory concentration (IC50) of 1.02 µM.
`O=C(CCl)N1CCCN(S(=O)(=O)c2cccs2)CC1` came in with an IC50 of 7.24 µM.
On to `N#Cc1cc(N(C(=O)c2ccco2)C(C(=O)NCCc2cccc(F)c2)c2cccnc2)ccc1Oc1ccc(C(F)(F)F)cc1` (centres undefined), for which the half-maximal inhibitory concentration (IC50) is over 99.5 µM.
As to `CC(=O)N1CCc2ccc(Cl)cc2C1C(=O)Nc1cncc2ccccc12` (centres undefined), the IC50 was 2.85 µM.
`Cc1ccc(N(Cc2cscn2)C(=O)Cc2cncc3ccccc23)nc1` returned an IC50 of over 99.5 µM.
The compound `COc1ccccc1OC1CCN(C(=O)c2cc(=O)[nH]c3ccccc23)C1` (centres undefined) displayed an IC50 of over 99.5 µM.
Consider `O=C(Nc1cncn1-c1cccnc1)C1CCOc2ccc(Cl)cc21` (centres undefined), for which the IC50 is over 99.5 µM.
In the case of `O=C(Nc1cncc2ccccc12)C1(CNc2c[nH]c(=O)[nH]c2=O)CCOc2cc(Cl)ccc21` (centres undefined) it was 5.36 µM.
With `O=C(Cc1cc(Cl)cc(Nc2ccncc2Br)c1)Nc1cncc2ccccc12`, the IC50 is 2.18 µM.
In the case of `CS(=O)(=O)c1ccc(O)c(Nc2cc(Cl)cc(CC(=O)Nc3cncc4ccccc34)c2)c1`, the IC50 came to 7.61 µM.
The value for `O=C(Cc1cccc(Cl)c1)Nc1noc2ncccc12` was over 99.5 µM.
Regarding `CS(=O)(=O)CC1(C(=O)Nc2cncc3ccccc23)CCOc2ccc(Cl)cc21` (centres undefined), the IC50 stood at 15.6 µM.
`Cc1ccc(S(=O)(=O)N2CCN(C(=O)CCl)C[C@H]2C(=O)NCc2ccccc2)cc1` (stereo in doubt) returned an IC50 of 3.65 µM.
The value for `O=C(Cc1cc(Cl)cc(NCc2ccccc2Br)c1)Nc1cncc2ccccc12` was 3.5 µM.
Take `Cc1cc(C(F)(F)F)nc2n[nH]c(NC(=O)Cc3cccc(Cl)c3)c12`: the half-maximal inhibitory concentration (IC50) is over 99.5 µM.
The value for `CNC(=O)CN1C[C@H](C(=O)Nc2cncc3cc(Cl)ccc23)c2cc(Cl)ccc2C1=O` (stereo in doubt) was 0.149 µM; that for `CC(C)(C)c1ccc(N(C(=O)c2ccco2)C(C(=O)NCCc2cccc(F)c2)c2cc(=O)[nH]c3ccccc23)cc1` (centres undefined) was 2.28 µM.
With `CC(CNc1ccc2nnnn2n1)c1nc2ccccc2s1` (centres undefined), the IC50 was over 99.5 µM.
For the compound `NC(=O)C1Cc2nc[nH]c2CN1C(=O)CC1(C(=O)Nc2cncc3ccccc23)CCOc2ccc(Cl)cc21` (centres undefined), the 50% inhibitory concentration (IC50) is 9.28 µM.
Consider `CC(C(=O)NS(=O)(=O)c1cnn(-c2cccc(C(F)(F)F)c2)c1)n1cnc(C#N)n1` (centres undefined), for which the IC50 is over 99.5 µM.
The value for `O=C(Cn1ccc(=O)[nH]c1=O)OCc1ccc(-c2ccccc2)cc1` was over 99.5 µM; that for `O=C(Cc1cccc(Cl)c1)Nc1cncc2ccc(OCCN3CCCC3)cc12` was 1.13 µM.
On to `Nc1nn(C(=O)C2CCOc3ccc(Cl)cc32)c2ccncc12` (centres undefined), for which the IC50 stood at 87.2 µM.
In turn, `O=C(Nc1cncc2[nH]c(=O)[nH]c12)C1CCOc2ccc(Cl)cc21` (centres undefined) had an IC50 of 62.8 µM.
As to `O=C(Cc1cc(Cl)cc2c1OCC2)Nc1cncc2ccccc12`, the IC50 was 1.13 µM and 1.87 µM.
`N#Cc1cc(Cl)cc(NC(=O)Nc2cccnc2)c1` gave an IC50 of over 99 µM.
In the case of `O=C(Nc1cncc2sc(Cl)cc12)C1CCOc2ccc(Cl)cc21` (centres undefined) it was 1.03 µM.
As for `CC1(C(=O)Nc2cncc3c2CCCC3)CNS(=O)(=O)c2ccc(Cl)cc21` (centres undefined), the IC50 was over 99.5 µM.
The value for `O=C(Nc1cccc(C(F)(F)F)c1)Nc1ccccc1Sc1ncc([N+](=O)[O-])s1` was 6.26 µM.
With `Cc1ccncc1NC(=O)C(CO)c1cccc(Cl)c1` (centres undefined), the IC50 is over 99.5 µM.
In turn, `Cc1ccncc1NC(=O)[C@H](C)OC(F)F` (stereo in doubt) came in with an IC50 of over 99.5 µM.
`C=CC(=O)N(c1ccc(C(C)(C)C)cc1)C(C(=O)NCCc1cccc(F)c1)c1cncc(C)c1` (centres undefined) came in with an IC50 of 11.6 µM.
Take `CNC(=O)CN1CC(C(=O)Nc2cncc3cc(NS(C)(=O)=O)ccc23)c2cc(Cl)ccc2C1=O` (centres undefined): the IC50 was < 0.05 µM and 0.0442 µM.
In turn, `Cc1cc(C(=O)CCl)c(C)n1CC1COc2ccccc2O1` (centres undefined) had an IC50 of 2.82 µM.
`COc1cccc(CNc2cc(Cl)cc(CC(=O)Nc3cncc4ccccc34)c2)c1OC`: the 50% inhibitory concentration (IC50) was found to be 2.48 µM.
In the case of `C=CC(=O)N(c1ccc(C(C)(C)C)cc1)[C@@H](C(=O)NCCc1cccc(F)c1)c1cccnc1` (stereo in doubt) it was 86.4 µM; in that of `Cn1c(NCc2cn3ccnc3s2)nc2ccccc21`, over 99.5 µM.
Regarding `CS(=O)(=O)Cc1ccc(N(C(=O)c2cocn2)C(C(=O)NCCc2cccc(F)c2)c2cccnc2)cc1` (centres undefined), the 50% inhibitory concentration (IC50) came to 27.7 µM.
As to `Cc1nocc1C(=O)N1Cc2ccc(Cl)cc2C(C(=O)Nc2cncc3ccccc23)C1` (centres undefined), the half-maximal inhibitory concentration (IC50) amounted to 0.168 µM.
As to `CCOC(=O)/C=C/N1CCN(S(=O)(=O)c2ccccc2)CC1`, the IC50 stood at 30 µM.
Turning to `C[C@@]1(C(=O)Nc2cncc3c2CCCC3)CNS(=O)(=O)c2ccc(Cl)cc21` (stereo in doubt), the IC50 came out at 3.72 µM.
On to `CCCOc1cc(Cl)cc2c1OCCC2C(=O)Nc1cncc2ccccc12` (centres undefined), for which the IC50 was determined as 5.63 µM.
`Cc1ccncc1CC(=O)Nc1cccc(Cl)c1` returned an IC50 of 29.9 µM.
Regarding `C[C@H]1C[C@@H](C(=O)Nc2cncc3ccccc23)c2cc(Cl)ccc2O1` (stereo in doubt), the IC50 came out at 20.1 µM.
In turn, `CC(C)(C)c1ccc(N(C(=O)c2cocn2)C(C(=O)NCC(=O)Nc2cccc([N+](=O)[O-])c2)c2cccnc2)cc1` (centres undefined) returned an IC50 of 14.4 µM.
Compound `C=CC(=O)N(c1cc(C(C)(C)C)on1)C(C(=O)NC(C)(C)C)c1cccnc1` (centres undefined) showed an IC50 of over 99 µM.
`Cc1cccc(CN2CCN(c3nc4ccccc4nc3C)CC2)c1` gave a half-inhibitory concentration (IC50) of over 99.5 µM.
`O=C(Cc1cccc(Cl)c1)Nc1n[nH]c2ccccc12` had an IC50 of over 99.5 µM.
For the compound `Cc1cccn2ncc(NC(=O)C3CNC(=O)c4ccc(Cl)cc43)c12` (centres undefined), the IC50 was 2.4 µM.
In turn, `O=C1CC(NC(=O)C2CCOc3ccc(Cl)cc32)CN1` (centres undefined) gave an IC50 of over 99.5 µM.
In the case of `O=C(Cc1cc(Cl)cc(NCc2cc(F)c(F)c(F)c2)c1)Nc1cncc2ccccc12` it was 3.4 µM; in that of `O=C(Cc1cc(Cl)cc(N[C@@H](CO)Cc2ccccc2)c1)Nc1cncc2ccccc12` (stereo in doubt), 2.5 µM.
In the case of `N#CCc1cccc(NC(=O)c2cnn3cc(Br)cnc23)n1` it was over 99.5 µM; in that of `O=C(Nc1cncc2cccc(Cl)c12)C12CC(C1)Oc1ccc(Cl)cc12`, 75.1 µM.
Turning to `O=C(Nc1cncc2ccc(C(F)(F)F)cc12)C1CCOc2ccc(Cl)cc21` (centres undefined), the IC50 was over 99.5 µM.
Turning to `O=C(Cc1cc(Cl)cc(Nc2cc(Cl)cnc2Br)c1)Nc1cncc2ccccc12`, the IC50 amounted to 1.99 µM.
The value for `O=C(Nc1[nH]nc2cccnc12)C1CCOc2ccc(Cl)cc21` (centres undefined) was over 99.5 µM.
In the case of `CC(C)(C)c1ccc(N(C(=O)c2ccns2)C(C(=O)NCCc2cccc(F)c2)c2cccnc2)cc1` (centres undefined) it was 51.1 µM.
The value for `COC1(CS(=O)(=O)N2CC(C(=O)Nc3cncc4cc(S(C)(=O)=O)ccc34)c3cc(Cl)ccc3C2=O)CC1` (centres undefined) was 0.773 µM; that for `Cn1ccnc1CN(C(=O)CC1(C(=O)Nc2cncc3ccccc23)CCOc2ccc(Cl)cc21)C1CC1` (centres undefined) was 5.05 µM; that for `Cc1cn2c(CNC(=O)c3cnn4ccccc34)c(C)nc2s1` was over 99.5 µM.
Regarding `CC(C)(C)c1ccc(N(C(=O)c2cocn2)C(C(=O)NCCc2nnn[nH]2)c2cccnc2)cc1` (centres undefined), the IC50 is over 99.5 µM.
For the compound `COc1ccc2n[nH]c(NC(=O)Cc3cccc(Cl)c3)c2c1`, the IC50 was over 99.5 µM.
In the case of `O=C(Cc1cccc(Cl)c1)Nc1cncc2cc(F)cc(Cl)c12` it was 0.718 µM.
In the case of `CC(C)(C)c1ccc(N(C(=O)c2cocn2)C(C(=O)NCCc2cccc(F)c2)c2ccc[nH]c2=O)cc1` (centres undefined) it was over 99.5 µM; in that of `N#CC1(CS(=O)(=O)N2Cc3ccc(Cl)cc3[C@@H](C(=O)Nc3cncc4ccccc34)C2)CNC1` (stereo in doubt), 1.62 µM; in that of `O=C(NCCc1cccc(F)c1)C(c1cccnc1)N(C(=O)c1ccco1)c1cccc(CSC2CCOCC2)c1` (centres undefined), over 99.5 µM.
In turn, `O=C(Nc1n[nH]c2ccnc(Br)c12)C1CCOc2ccc(Cl)cc21` (centres undefined) returned an IC50 of over 99.5 µM.
`N#CC1(CS(=O)(=O)N2Cc3ccc(Cl)cc3C3(CCN(c4cncc5ccc(OCCN6CCOCC6)cc45)C3=O)C2)CC1` (centres undefined): the half-maximal inhibitory concentration (IC50) was found to be 0.187 µM.
The compound `O=C(Nc1cccc2cc[nH]c12)c1cccc2[nH]c(=O)oc12` gave a concentration for half-maximal inhibition (IC50) of over 99.5 µM.
`Cn1cncc1CN(C(=O)CC1(C(=O)Nc2cncc3ccccc23)CCOc2ccc(Cl)cc21)C1CC1` (centres undefined) gave a 50% inhibitory concentration (IC50) of 6.1 µM.
For the compound `O=C(c1cc(F)cc(F)c1)N1CCOc2cc(O)ccc2C1`, the IC50 is over 99.5 µM.
As for `COc1ccc(CC(=O)Nc2cncc3ccccc23)cc1`, the IC50 worked out at 72.5 µM.
Turning to `NS(=O)(=O)CCc1ccccc1CN1CCN(C(=O)CCl)CC1`, the IC50 worked out at 2.72 µM.
For `O=C(Cc1cc(Cl)cc(Nc2ncc(Br)c(C(F)(F)F)n2)c1)Nc1cncc2ccccc12`, the half-inhibitory concentration (IC50) is 1.84 µM.
Consider `Cn1ncc2c(NCc3ccc4cccnc4c3)ncnc21`, for which the IC50 was over 99.5 µM.
As to `Cc1ccc(C(=O)Nc2c(-c3cnn(C)c3)nc3ccccn23)cn1`, the half-inhibitory concentration (IC50) is over 99.5 µM.
`C[C@@H]1CC[C@@]2(OC1)O[C@H]1C[C@H]3[C@@H]4CC=C5C[C@@H](O)CC[C@]5(C)[C@H]4CC[C@]3(C)[C@]1(O)[C@@H]2C` (stereo in doubt) gave an IC50 of over 99.5 µM.
The compound `CN(C)C(=O)COCC1(C(=O)Nc2cncc3ccccc23)CCOc2ccc(Cl)cc21` (centres undefined) gave a half-maximal inhibitory concentration (IC50) of 0.652 µM.
`Cn1cc(CN(C(=O)Cn2nnc3ccccc32)c2ccc(N3CCCCC3)cc2)cn1` yielded an IC50 of over 99.5 µM.
The value for `O=C(Nc1cncc2ccccc12)C1CCOc2c(OCc3ccccn3)cc(Cl)cc21` (centres undefined) was 6.43 µM; that for `COC1CN(S(=O)(=O)N2Cc3ccc(Cl)cc3C3(CCN(c4cncc5ccccc45)C3=O)C2)C1` (centres undefined) was 0.224 µM; that for `CC(Cc1nc2ccccc2s1)Nc1ccc2nnnn2n1` (centres undefined) was over 99.5 µM.
As to `O=C(Cn1nnc2ccccc21)N(Cc1ccccn1)c1ccc(-n2cnnc2)cc1`, the IC50 is over 99.5 µM.
The compound `Cc1ccncc1NC(=O)CN1C(=O)COc2ccc(Cl)cc21` gave a 50% inhibitory concentration (IC50) of 59.9 µM.
Compound `COC(=O)CCSc1cc(Cl)ccc1N(C(=O)c1ccco1)C(C(=O)NCCc1cccc(F)c1)c1cccnc1` (centres undefined) showed an IC50 of 16.6 µM.
As for `O=C(Cc1cc(Cl)cc(NCC(c2ccccc2)c2ccccc2)c1)Nc1cncc2ccccc12`, the half-maximal inhibitory concentration (IC50) amounted to 5.82 µM.
For the compound `COc1ccccc1OCCC(=O)Nc1cncc2ccccc12`, the IC50 was 93.6 µM and > 99.5 µM.
